Results reported in paper PMC9623576, “Semisynthesis and Evaluation of Anti-Inflammatory Activity of the Cassane-Type Diterpenoid Taepeenin F and of Some Synthetic Intermediates” (Journal of Natural Products, 2022).
Read-outs that look alike come from different tables or passages of the source.

Legend:
[1] = system: HepG2 human hepatocarcinoma cells; experiment: MTT cancer cell proliferation assay, HepG2; type: cell-based; details: HepG2, 72 h
Experimental: (§1) The five newly synthesized diterpenoids were evaluated for their cytotoxic effects against three selected tumor cell lines, B16-F10 murine melanoma cells, HT29 human colon adenocarcinoma cells, and HepG2 human hepatocarcinoma cells at increasing concentrations (0–100 μg/mL). After 72 h of treatment, cell viability was determined by an MTT assay, where the tetrazolium dye was transformed into formazan in the mitochondria of viable cells, its absorbance measured at 570 nm and expressed as a percentage with respect to untreated control cells (S3 Figure.). The concentrations required for 20, 50, and for 80% growth inhibition (IC20, IC50, and IC80) were also determined for each compound (Table 2).
(§2) A stock solution was frozen and stored at […]. Before the experiments, this solution was diluted in cell-culture medium to the adequate concentrations for each experiment. […] For nitrite assay, subcytotoxic concentrations (3/4IC50, 1/2IC50, and 1/4IC50), were used to ensure that the NO inhibitory potential was not due to a possible cytotoxic effect. The concentrations of 3/4IC50, 1/2IC50, and 1/4IC50 were used for the cell-cycle analysis. All experiments were measured and compared with control (untreated cells after 24, 48, or 72 h of treatment.)
(§3) Human colorectal adenocarcinoma cell line HT29 (ECACC no. 9172201; ATCC no. HTB-38), human hepatocarcinome cell line HepG2 (ECACC no. 85011430), mouse melanoma cells B16-F10 (ATCC no. CRL-6475), and murine monocyte/macrophage-like RAW 264.7 cell line (ATCC no, TIB-71) were cultured in DMEM (Dulbecco’s modified Eagle’s medium) supplemented with 2 mM glutamine, 10% heat-inactivated FCS (fetal calf serum), 10 000 units/mL of penicillin and 10 mg/mL of streptomycin, (for all cancer cell lines), 50 μg/mL of gentamicin (only for RAW 264.7 cell line), and incubated at 37 °C, in an atmosphere of 5% CO2 and 95% humidity. The culture media were changed every 48 h, and the confluent cultures were separated with a trypsin solution (0.25% EDTA). In all experiments, monolayer cells were grown to 80–90% confluence, in sterile cell culture flasks. All cell lines used were purchased from the cell bank of the University of Granada, Spain.
(§4) The cytotoxicity assay was performed by the MTT (3-(4,5-dimethylthiazol-2-yl)-2,5-diphenyltetrazolium bromide) method.[21] To quantify the cytotoxicity of compounds, the fresh and suspended cells were seeded in 96-well plates to a volume of 100 μL at 6.0 × 10^3 cells/mL for HT29 and RAW 264.7 cell lines, at 5.0 × 10^3 cells/mL for B16-F10 cells and 15.0 × 10^3 for Hep G2. Then, cells were incubated to adhere over 24 h at 37 °C with 5% CO2. All tested compounds were prepared in fresh growth medium. After 24 h, an additional 100 μL of medium with the corresponding concentrations of products (only medium in the control wells) was added to the corresponding wells, at various final concentrations (0–100 μg/mL). Finally, after 72 h of incubation at 37 °C with 5% CO2, the medium with the compounds were removed and 100 μL of MTT solution (0.5 mg/mL) in 50% of PBS 50% of medium was added to each well. After 1.5 h of incubation, formazan was resuspended in 100 μL of DMSO, and each concentration was tested in triplicate. Relative cell viability, with respect to untreated control cells, was measured by absorbance at 570 nm on an ELISA plate reader (Tecan Sunrise MR20-301, TECAN, Austria).
(§5) Cytotoxicity experimental data were fitted to a sigmoidal function (y = ymax/(x/a)^−b) by nonlinear regression. […] These analyses were performed using SigmaPlot 12.5 software. Similar analyses were performed to obtain the IC50 of NO production. All data shown here are representative of at least two independent experiments performed in triplicate. All quantitative data were summarized as the mean ± standard deviation (SD).

[2] = system: B16-F10 murine melanoma cells; experiment: MTT cancer cell proliferation assay, B16-F10; type: cell-based; details: B16-F10, 72 h
Experimental: as §1, §2, §3, §4, §5

[3] = system: NO production in LPS-activated RAW 264.7 macrophage murine cells; experiment: Inhibition of NO (nitrite) release, Griess reaction; type: cell-based
Experimental: The concentrations of nitrites were determined by the Griess reaction.
as §2
Nitrites production was analyzed through the Griess reaction. This nitrite concentration was used as an indicator of NO production.[35] Briefly, RAW 264.7 cells were plated at 6 × 10^3 cells/well in 24-well cell culture plates and supplemented with 10 μg/mL of lipopolysaccharide (LPS). […] The supernatants were collected at 48 and 72 h, to determine their nitrite concentrations and/or stored at −80 °C for further use.
The Griess reaction was performed taking 150 μL of supernatant test samples or sodium nitrite standard (0–120 μM) and mixed with 25 μL of Griess reagent A (0.1% N,N-(1-naphthyl) ethylenediaminedihydrochloride) and 25 μL of Griess reagent B (1% sulfanilamide in 5% of phosphoric acid), in a 96-well plate. After 15 min of incubation at room temperature, the absorbance was measured at 540 nm in an ELISA plate reader (Tecan Sunrise MR20–301, TECAN, Austria). The absorbance was referred to a nitrite standard curve to determine the concentration of nitrite in the supernatant of each experimental sample. The percentage of NO production was determined, assigning 100% at the increase between negative control (untreated cells) and positive control (cells only treated with 10 μg/mL of LPS).

[4] = system: RAW 264.7 monocyte/macrophage murine cells; experiment: MTT growth inhibition on RAW 264.7 cells; type: cell-based; details: Mus musculus, RAW264.7, RAW 264.7, MTT; for IC20: 20% growth inhibition; for IC80: 80% growth inhibition
Experimental: as §2
In all experiments, monolayer cells were grown to 80–90% confluence, in sterile cell culture flasks. All cell lines used were purchased from the cell bank of the University of Granada, Spain.
The cytotoxicity assay was performed by the MTT (3-(4,5-dimethylthiazol-2-yl)-2,5-diphenyltetrazolium bromide) method.[21] […] All tested compounds were prepared in fresh growth medium. After 24 h, an additional 100 μL of medium with the corresponding concentrations of products (only medium in the control wells) was added to the corresponding wells, at various final concentrations (0–100 μg/mL). […] After 1.5 h of incubation, formazan was resuspended in 100 μL of DMSO, and each concentration was tested in triplicate.
Cytotoxicity experimental data were fitted to a sigmoidal function (y = ymax/(x/a)^−b) by nonlinear regression. […] Similar analyses were performed to obtain the IC50 of NO production. All data shown here are representative of at least two independent experiments performed in triplicate. All quantitative data were summarized as the mean ± standard deviation (SD).

[5] = system: HT29 human colon adenocarcinoma cells; experiment: MTT cancer cell proliferation assay, HT29; type: cell-based
Experimental: as §1, §2, §3, §4, §5

[6] = system: NO release; details: read-out: IC50 of NO inhibitory effect; cited from earlier work
[7] = system: MCF-7 cancer cell line; set-up: method as in PMID 23806110; details: MCF-7 cancer cell line ref 10; cited from earlier work
[8] = system: HepG-2 cancer cell line; set-up: method as in PMID 23806110; details: HepG-2 cancer cell line ref 10; cited from earlier work
[9] = Homo sapiens, MTT, read-out: IC50
[10] = Homo sapiens, MTT, read-out: IC20
[11] = Mus musculus, MTT, read-out: IC50
[12] = Mus musculus, MTT, read-out: IC20
[13] = Homo sapiens, HT-29, HT29, 72 h, MTT
[14] = Homo sapiens, HT-29, HT29, 72 h, MTT, read-out: IC20

Molecule | inhibition of NO release ([3]; 48 h, 1/2IC50 concentration) | inhibition of NO release ([3]; 48 h, 3/4IC50 concentration) | inhibition of NO release ([3]; 72 h, 3/4IC50 concentration) | IC20 [4] | IC80 [4] | IC50 ([1]; MTT, read-out: IC50) | IC50 [1, 9] | IC80 ([1]; Homo sapiens, MTT) | IC20 [1, 10] | IC50 ([2]; MTT, read-out: IC50) | IC50 [2, 11] | IC80 ([2]; Mus musculus, MTT) | IC20 [2, 12] | IC50 [4] | IC80 [5, 13] | IC20 [5, 14] | further results
COC(=O)[C@]1(C)CCC[C@]2(C)c3cc4c(c(C)c3CC[C@@H]12)CC(=O)O4 [Compound 6, (4R,4aR,11bS)-Methyl 4,7,11b-trimethyl-9-oxo-1,2,3,4,4a,5,6,8,9,11b-decahydrophenanthro[3,2-b]furan-4-carboxylate] | 77.80% | 88.33% | 98% | 111 ± 24 µM | 254.7 ± 1.48 µM | – | – | – | – | – | – | – | – | – | – | – | IC50 ([1]; MTT): > 100 µM; IC50 ([1]; MTT, listed as Taepeenin F (6)): 237 ± 9.69 µM; IC20 ([1]; Homo sapiens): 112 ± 22 µM; IC50 ([2]; MTT): > 100 µM; IC50 ([2]; MTT, listed as Taepeenin F (6)): 257 ± 24 µM; IC20 ([2]; Mus musculus): 234 ± 4.12 µM; IC50 ([5]; HT29, 72 h, MTT): > 100 µM; IC50 ([5]; HT29, 72 h, MTT, listed as Taepeenin F (6)): 391 ± 39.5 µM; IC20 ([5]; Homo sapiens, HT-29, 72 h): 124.2 ± 1.11 µM
COC(=O)[C@]1(C)CCC[C@]2(C)c3cc(O)c(C(C)C)c(C)c3CC[C@@H]12 [Compound 17, (1R,4aS,10aR)-Methyl 6-hydroxy-7-isopropyl-1,4a,8-trimethyl-1,2,3,4,4a,9,10,10a-octahydrophenanthrene-1-carboxylate] | 86.5% | 89.70% | 99% | 27.8 ± 8.38 µM | 247 ± 6.3 µM | 137 ± 13.9 µM | > 85.6 µM | 274 ± 41.2 µM | 32.6 ± 3.41 µM | 133 ± 8.17 µM | > 85.6 µM | 259.3 ± 1.35 µM | 33.3 ± 5.94 µM | 129 ± 7.06 µM | 311 ± 8.32 µM | 122 ± 24.2 µM | –
COC(=O)[C@]1(C)CCC[C@]2(C)c3cc(O)c(CO)c(C)c3CC[C@@H]12 [Compound 22, (1R,4aS,10aR)-Methyl 6-hydroxy-7-(hydroxymethyl)-1,4a,8-trimethyl-1,2,3,4,4a,9,10,10a-octahydrophenanthrene-1-carboxylate] | 70.94% | 86.96% | 96% | 92.1 ± 1.13 µM | 114.2 ± 0.17 µM | 125 ± 2.36 µM | > 85.6 µM | 141 ± 6.51 µM | 110.1 ± 0.84 µM | 102 ± 4.36 µM | > 85.6 µM | 122 ± 4.22 µM | 85.5 ± 6.16 µM | 101.8 ± 0.52 µM | 114 ± 7.35 µM | 67.5 ± 4.61 µM | melting point: 98 to 101 °C; IC50 ([5]; HT29, 72 h, MTT, read-out: IC50): 85.6 ± 4.99 µM; IC50 ([5]; Homo sapiens, HT-29, 72 h, HT29, 72 h, MTT, read-out: IC50): > 85.6 µM
caesalmin A | – | – | – | – | – | – | – | – | – | – | – | – | – | – | – | – | IC50 [6]: ~25.4 µM
caesalpin A [Compound 8] | – | – | – | – | – | – | – | – | – | – | – | – | – | – | – | – | IC50 [7]: 2.1 µM; IC50 [8]: 4.7 µM
